# Reference: article PMC8450341 (Frontiers in Physiology, 2021)
# Entries after “also recorded” stand apart in the source; their conditions may differ. Like-named read-outs stand apart in the source and are kept apart here.
# Columns and labels:
# [1] = test system: rat models of hypoxia-induced pulmonary hypertension; conditions: cited from earlier work
# bovine PH-fibs = test system: bovine PH-fibs; design: method as in Li et al., 2011; conditions: ref Li et al., 2011; cited from earlier work
# HDAC1 = test: Immunoblotting of HDAC abundance in RV and lung homogenates; assay type: in vivo, bovine calf; conditions: vorinostat over initial 5 days of hypoxia, measured at end of 14 days hypoxic exposure, vs untreated PH
# Method: At the conclusion of the study period, calves were deeply anesthetized and euthanized. Tissue samples from right ventricle free wall and distal lung parenchyma were snap frozen in liquid nitrogen for laboratory analysis. RNA isolation and quantitative PCR were performed as described previously ([Frid et al., 2009]). mRNA abundance was quantitated relative to HPRT by the delta Ct method. The following primers were used (5′–3′). […] TCCA; Osteopontin (SPPA), Fwd:[…]; Hypoxanthine ribosyl transferase (HPRT), Fwd:[…], Rev:[…].
# Procedures for immunoblotting and densitometry were performed as described previously ([Li et al., 2011]). HDAC antibodies were obtained from Cell Signaling Technology (HDAC1, #5356; HDAC5, #20458).
# (A) Immunoblotting HDAC abundance.
# [2] = test system: calves with hypoxia-induced pulmonary hypertension; test: Hemodynamics by right heart catheterization, hypoxic calf; assay type: in vivo, bovine calf
# Text: (§1) The bovine calf hypoxia model of PH previously reported ([Stenmark et al., 1987]; [Lemler et al., 2000]; [Bartels et al., 2016]) consistently produces significant pulmonary hypertension (mean PAP > 100 mmHg) and subsequent tissue changes on post-mortem examination ([Stenmark et al., 1987]). Animals display blood gas PaO2 and PaCO2 values consistent to severe hypoxia and PH ([Stenmark et al., 1987]; [Lemler et al., 2000]). Male Holstein dairy calves at 7 days of age (45–50 kg) were sourced from a local dairy farm. This study utilized a case comparison design. […] Hypoxic calves (Groups 1 and 2) were exposed to hypobaric hypoxia at simulated elevation of 10,000 feet for 48–72 h to allow acclimation then exposed to hypobaric hypoxia at the study condition of 15,000 feet simulated elevation (PB = 430 mmHg, Hypo-Hyperbaric Chamber Facility, Colorado State University Department of Physiology). The standard exposure interval was 14 days at this elevation. Control normoxic calves remained at ambient Fort Collins pressure (4,950 feet PB = 630 mmHg).
# (§2) This dosing regimen was selected to minimize adverse effects based on guidelines for human pediatric patients (Lia Gore MD, Center for Cancer and Blood Disorders, Children’s Hospital Colorado, personal communication.) Group 2 calves received no drug treatment. At this age, the calf digestive system has not matured and the abomasum functions as the sole stomach similar to humans.
# (§3) Standard measurements of PAP and cardiac output were performed by right heart catheterization concurrent with the final echo in both the two normoxic and two hypoxic calves on study day 14 as described previously ([Stenmark et al., 1987]; [Lemler et al., 2000]).
# (§4) Data were obtained from right heart catheterization as described in Materials and Methods. Standard units: Pressure, mm Hg; Cardiac output, L/min; PA, pulmonary artery.
# normoxic control calves [3] = test: Echocardiography in normoxic vorinostat-treated control calves; assay type: in vivo, bovine calf
# Text: as §1, §2
# (§5) Echocardiography was utilized for non-invasive sequential assessment of cardiopulmonary function as described previously ([Lemler et al., 2000]; [Bartels et al., 2016]). […] The progression of pulmonary hypertension was evaluated by sequential echocardiography at the study condition (15,000 feet or normoxia) on study days 4, 8 and terminal day 14. Parasternal long and short axis recordings were obtained over 3–4 cardiac cycles, together with M-mode traces as indicated, using GE Echo PACS (General Electric, Chicago, IL, United States) or MicroDicom^1 software. Echocardiographic findings consistent with PH (abnormal RV size and function), or interventricular septum abnormalities including abnormal motion or flattening were evaluated ([Boon, 2011]). Septal motion and flattening were further quantitated by eccentricity index EI on short-axis views with EchoPACS. Tricuspid or mitral valve regurgitation was scored qualitatively as trace, mild, moderate or severe. Global RV function was assessed qualitatively. When RV images on long-axis included the entire chamber, RV fractional area change (FAC) was calculated with EchoPACS. RV fractional shortening was measured from M-mode recordings using MicroDicom. Calves were monitored following each non-terminal echo procedure for recovery including standing and interacting normally, and normal milk intake.
# [4] = design: method as in Fraczek et al., 2013; conditions: dogs, oral; ref Fraczek et al., 2013; cited from earlier work
# [5] = cited from earlier work
# in vivo = conditions: male, Holstein, bovine, serum, po, 235 mg
# Method: (§8) Pharmacokinetic parameters were calculated by a non-compartmental model using Phoenix WinNonlin v8.1 ([Wagner, 1993]).
# [6] = cited from earlier work; for metabolite AUC relative to that of vorinostat: in humans
# normoxic control calves [7] = test: Hemodynamics by right heart catheterization, normoxic calves; assay type: in vivo, bovine calf
# Text: as §1, §2, §3, §4
# [8] = test system: ED-A Fn, tenascin C, osteopontin and periostin mRNAs; test: Real-time PCR of genes in pulmonary remodeling; assay type: in vivo, bovine calf
# Method: (§6) At the conclusion of the study period, calves were deeply anesthetized and euthanized. Tissue samples from right ventricle free wall and distal lung parenchyma were snap frozen in liquid nitrogen for laboratory analysis. RNA isolation and quantitative PCR were performed as described previously ([Frid et al., 2009]). mRNA abundance was quantitated relative to HPRT by the delta Ct method. The following primers were used (5′–3′). Fibronectin, Extracellular Domain A (ED-A Fn), Fwd:[…], Rev:[…]; Tenascin C (TnC), Fwd:G […], Rev:[…] TCCA; Osteopontin (SPPA), Fwd:[…] […]
# (§7) (A) Immunoblotting HDAC abundance. RV and lung homogenates were prepared and HDAC abundance was determined by immunoblotting as described in section “Materials and Methods.” Additional untreated control and hypoxic animals were analyzed in parallel for comparison. Protein abundance was quantitated densitometrically relative to beta-actin. *p < 0.05 vs. control (unpaired two-tailed t-test). […] Abundances of indicated mRNAs were quantitated by real-time PCR as described in section “Materials and Methods.” Animals used in the present study were analyzed together with samples from additional untreated hypoxic and normoxic calves (n = 4 each) that were managed according to the same animal protocols described in section “Materials and Methods,” and studied around the same period of time. […]
# [9] = test system: calves with hypoxia-induced pulmonary hypertension; test: Echocardiography in neonatal calf model of hypoxia-induced PH; assay type: in vivo, bovine calf
# Text: as §1, §2, §5
# [10] = test system: brain natriuretic peptide (BNP) and skeletal muscle alpha-actin mRNAs; test: Real-time PCR of genes in RV hypertrophic remodeling; assay type: in vivo, bovine calf
# Method: as §6, §7
# [11] = test system: IL-6, CSF2, SDF1, IL1β, IL-1RA, TLR2, POSN mRNAs; test: Pairwise qPCR of inflammatory and matrikine gene expression; assay type: in vivo, bovine calf; conditions: hypoxic vorinostat-treated vs. untreated calf
# Method: At the conclusion of the study period, calves were deeply anesthetized and euthanized. Tissue samples from right ventricle free wall and distal lung parenchyma were snap frozen in liquid nitrogen for laboratory analysis. RNA isolation and quantitative PCR were performed as described previously ([Frid et al., 2009]). mRNA abundance was quantitated relative to HPRT by the delta Ct method. The following primers were used (5′–3′). Fibronectin, Extracellular Domain A (ED-A Fn), Fwd:[…], Rev:[…]; Tenascin C (TnC), Fwd:G […], Rev:[…] TCCA; Osteopontin (SPPA), Fwd:[…] CACAGA, Rev:[…]; Periostin (POSTN), Fwd:[…], Rev:CAC […]; Skeletal muscle alpha-actin (ACTA1), Fwd:[…], Rev:GAAGGT […]; Brain natriuretic peptide (NPPB), Fwd:[…], Rev:[…]; Hypoxanthine ribosyl transferase (HPRT), Fwd:[…], Rev:[…].
# Figure 2. Comparison of inflammatory and matrikine gene expression in vorinostat treated versus untreated hypoxic calves. mRNA abundance was quantitated as described in Methods. For each indicated mRNA, abundance in the vorinostat-treated PH calf was determined relative to that in the untreated PH calf (indicated by dotted line at unity).
# [12] = design: method as in Fraczek et al., 2013; conditions: rats, oral; ref Fraczek et al., 2013; cited from earlier work
# [13] = Serum pharmacokinetics after single oral dose in normoxic calves; conditions: for ratio of metabolite AUC to vorinostat AUC: calves
# Method: as §8
# [14] = test system: calves in normoxic or hypoxic conditions; test: Clinical signs and blood chemistry during and after dosing; assay type: in vivo, bovine calf
# Text: as §2
# [15] = ref Cho et al., 2010, Cavasin et al., 2012
# [16] = Hypoxic vorinostat treated calf, study day 14
# [17] = vorinostat-treated PH calf, day 14
# [18] = human adult dose of 400 mg daily, ref Iwamoto et al., 2013
# [19] = Normoxic vorinostat treated #1, study day 14
# [20] = Normoxic vorinostat treated #2, study day 14
# [21] = single oral dose, four normoxic calves
structure (smiles),measurement,setting,value
Nc1ccccc1NC(=O)c1ccc(CNC(=O)OCc2cccnc2)cc1 [MS-275],RV function,[1]; [15],preserved
same,RV hypertrophic and pro-fibrotic remodeling,[1]; [15],attenuated
CCC(=O)CCCCC[C@@H]1NC(=O)[C@H]2CCCCN2C(=O)[C@H]([C@@H](C)CC)NC(=O)[C@H](Cc2cn(OC)c3ccccc23)NC1=O [apicidin],activated fibroblast phenotype,bovine PH-fibs,reversed
CCCC(CCC)C(=O)O [valproic acid],RV hypertrophy,[1]; [15],attenuated
same,hypoxia-induced PH in rats,[1]; ref Zhao et al. (2012),inhibited
"O=C(CCCCCCC(=O)Nc1ccccc1)NO [vorinostat, suberanilohydroxamic acid]",expression of HDAC1 in both lung and RV,HDAC1,tended to decrease
same,Cardiac Output,[2]; [16],5.5 L/min
same,Mean PA Pressure,[2]; [16],97.6 mm Hg
same,PA Pulse Pressure,[2]; [16],38.9 mm Hg
same,Systolic PA Pressure,[2]; [16],118.5 mm Hg
same,PA pulse pressure compared to untreated hypoxic calf,[2]; [17],tended toward reduced; also recorded: substantially reduced
same,PA systolic pressure compared to untreated hypoxic calf,[2]; [17],tended toward reduced; also recorded: slightly reduced
same,cardiac output compared to untreated hypoxic calf,[2]; [17],increased; also recorded: increasing
same,mean PA pressure compared to untreated hypoxic calf,[2]; [17],similar; also recorded: did not lower
same,activated fibroblast phenotype,bovine PH-fibs,reversed
same,RV Fractional area change (FAC),"normoxic control calves [3]; Normoxic #2 calf, vorinostat administration, Study Day 14",50.9%
same,adverse cardiac effects,normoxic control calves [3]; based on echo and hemodynamic criteria,no evidence for adverse cardiac effects
same,RV fractional shortening,"normoxic control calves [3]; control (normoxic vorinostat-treated) calf, day 14, M-mode",50%
same,echocardiographic evidence of negative impacts on cardiac function,"normoxic control calves [3]; control normoxic calves, vorinostat treatment",not associated with echocardiographic evidence of negative impacts on cardiac function
same,bioavailability,[4],11%
same,aqueous solubility,[5],poor
same,Tmax,in vivo,≤ 4 h
same,AUC,[6]; [18],"4,000–6,000 nM•h"
same,Cmax,[6]; [18],1000 to 1500 nM
same,half-life,"[6]; humans and other animal species, ref Mohamed et al., 2012, Fraczek et al., 2013, Iwamoto et al.",approximately 2 h
same,Bioavailability of oral vorinostat,"[6]; humans, ref Fraczek et al., 2013",43%
same,Tmax,"[6]; post-fed humans, ref Iwamoto et al., 2013",~4 h
same,Cardiac Output,normoxic control calves [7]; [19],4.4 L/min
same,Mean PA Pressure,normoxic control calves [7]; [19],25.1 mm Hg
same,PA Pulse Pressure,normoxic control calves [7]; [19],17.6 mm Hg
same,Systolic PA Pressure,normoxic control calves [7]; [19],34.0 mm Hg
same,Cardiac Output,normoxic control calves [7]; [20],5.1 L/min
same,Mean PA Pressure,normoxic control calves [7]; [20],19.4 mm Hg
same,PA Pulse Pressure,normoxic control calves [7]; [20],14.5 mm Hg
same,Systolic PA Pressure,normoxic control calves [7]; [20],27.1 mm Hg
same,effect on hemodynamic parameters in normoxic calves,normoxic control calves [7]; compared to the authors' previous studies,did not affect
same,"lung expression of ED-A Fn, TNC, osteopontin and periostin mRNAs",[8]; hypertensive calves compared to untreated hypertensive calves,tended to reduce
same,"abundance of ED-A Fn, TNC, osteopontin and periostin mRNAs in normoxic animals",[8]; normoxic animals,not affected
same,RV Fractional area change (FAC),"[9]; Hypoxic #1 calf, vorinostat first 5 days, Study Day 14",30.1%
same,septal distortion compared to untreated PH calf,"[9]; vorinostat-treated PH calf, apical 4-chamber echo images",reduced septal distortion
same,RV fractional shortening,"[9]; vorinostat-treated PH calf, day 14, M-mode",20%
same,degree of RV dysfunction compared to untreated hypoxic calf,"[9]; vorinostat-treated hypoxic calf, days 4, 8, and 14",consistently less severe
same,RV expression of BNP and skeletal muscle alpha-actin mRNAs,"[10]; hypoxic calf, compared to calves with untreated PH",tended to decrease
same,"RV mRNA abundance (BNP, skeletal muscle alpha-actin) of control calves",[10]; normoxic control calves,not affected
same,"expression of pro-inflammatory mRNAs including IL-6, CSF2, SDF1, IL1β, IL-1RA, TLR2, and the matrikine POSN",[11],reduced expression
same,bioavailability,[12],2%
same,time until serum vorinostat returns to undetectable levels,[13]; after single oral administration,≤ 24 h
same,integrated area under the concentration × time curve,[13]; [21],"~1,500 nM•h"
same,peak serum concentration,[13]; [21],~400 nM
same,time to peak serum concentration,[13]; [21],~4 h
same,standard blood chemistry values,[14]; data not shown,within normal reference intervals
same,adverse clinical signs attributable to vorinostat administration,"[14]; during or following active dosing, normoxic or hypoxic conditions",No adverse clinical signs
Nc1ccccc1NC(=O)c1ccc(CNc2nccc(-c3cccnc3)n2)cc1 [MCD-0103],RV function,[1]; [15],preserved
same,RV hypertrophic and pro-fibrotic remodeling,[1]; [15],attenuated
O=C(CCCCCCC(=O)Nc1ccccc1)NO[C@@H]1O[C@H](C(=O)O)[C@@H](O)[C@H](O)[C@H]1O [Vorinostat glucoronide],metabolite AUC relative to that of vorinostat,"[6]; ref Iwamoto et al., 2013",3–4 times
same,ratio of metabolite AUC to vorinostat AUC,[13]; single oral dose,~3 fold
"O=C(O)CCC(=O)Nc1ccccc1 [Succininanilic Acid, succinanilic acid]",Tmax,in vivo,6 h
same,metabolite AUC relative to that of vorinostat,"[6]; ref Iwamoto et al., 2013",10–13 times
same,ratio of metabolite AUC to vorinostat AUC,[13]; single oral dose,~20 fold
